Measurements reported in PubChem BioAssay (NCI).
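Following 48 hours of exposure in 96-well plates, responses at five concentrations were used to interpolate endpoints linearly. Here, GI50 denotes the concentration required for 50% inhibition of growth. TGI is the concentration that stops growth completely.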

Tested on: KM12 colon
Test: inhibition of tumour cell growth, NCI panel, 48 h

Row | Structure (SMILES) | TGI [µM] | GI50 [µM]
1 | CN1c2ccccc2C(=O)NC12CCN(CC1COc3ccccc3O1)CC2 (stereo not drawn) | > 100 | –
2 | CCOC1NC(=O)c2ccccc21 (stereo not drawn) | > 100 | –
3 | Cc1cn(C2CC(OC(c3ccccc3)(c3ccccc3)c3ccccc3)C(COC(c3ccccc3)(c3ccccc3)c3ccccc3)O2)c(=O)[nH]c1=O (stereo not drawn) | > 100 | –
4 | CCOC(=O)C(NC(=O)c1ccc(N=NN(C)C)cc1)C(C)C (stereo not drawn) | > 100 | –
5 | COc1cc(CCCOC2OC(COC3OCC(O)C(O)C3O)C(O)C(O)C2O)cc2cc(-c3ccc4c(c3)OCO4)oc12 (stereo not drawn) | > 175 | –
6 | O=CN(O)CC(=O)O | > 100 | –
7 | C(=N/Nc1ccc(-c2nc3ccccc3[nH]2)cc1)/c1c(-c2ccccc2)[nH]c2ccccc12 | > 100 | –
8 | CC1OC(n2cc(F)c(=O)[nH]c2=O)C(O[Si](C)(C)C(C)(C)C)C1O[Si](C)(C)C(C)(C)C (stereo not drawn) | 26.1 | –
9 | CCOC(=O)c1c(NC(=S)Nc2ccc(C)cc2)sc2c1CCN(C)C2 | > 100 | –
10 | c1ccc([P+](Cc2csnn2)(c2ccccc2)c2ccccc2)cc1 | > 100 | –
11 | c1ccc(-c2ccc(N=NN3CCCC3)cc2)cc1 | > 100 | –
12 | COc1cc2nc(-c3c(F)cccc3F)n(Cc3c(F)cccc3F)c2cc1Cc1c(F)cccc1F | > 100 | –
13 | CC(C)Cc1c(C#N)c(C#N)c(N)n1Cc1ccccc1 | > 100 | –
14 | Nc1nc(Nc2ccc(OCc3cccc(F)c3)cc2)c2c(n1)[nH]c1ccc(O)cc12 | 11.7 | 3.55
15 | CC1=NC(C)(C)N(O)C1(C)C | > 100 | –
16 | O=c1oc2ccccc2c2nc3ccccc3cc12 | > 100 | –
17 | CCCC[C@@H]1CCN2C[C@@H](O)[C@@H](O)[C@H]2[C@@H]1O | > 100 | –

Row | Structure (SMILES) | TGI [µM] | GI50 [µM]
18 | O=C(NN1C(=O)CSC1c1ccc(Cl)c(Cl)c1)c1ccncc1 (stereo not drawn) | > 100 | –
19 | CCOC(=O)c1csc(NC(=O)CCCC#N)n1 | > 100 | –
20 | O=c1cc(-c2ccccc2F)[nH]c2cc3c(cc12)OCO3 | 17.1 | –
21 | CC(C)(C)c1ccc2c(c1)OCc1n[nH]c(n1)COc1cc(C(C)(C)C)ccc1OCCOCCO2 | 15.1 | –
22 | COC1OC2COC(C)(C)OC2C2OC(C)(C)OC12 (stereo not drawn) | > 100 | –
23 | CCNC(=S)N/N=C/c1ccccn1 | > 100 | –
24 | COc1ccc(CCCCl)c(C2=NCCc3ccccc32)c1 | > 100 | –
25 | O=C(CN=C(CN(c1ccccc1)c1ccccc1)Oc1c(Cl)cc(Cl)cc1Cl)n1cnc2ccccc21 | > 100 | –
26 | C=C1CC=CC(C)(C)C1C/C=C(\C)C(O)CBr (stereo not drawn) | > 100 | –
27 | CCOC(=O)C(C)NC(=O)N(C)C12CC3CC(CC(C3)C1)C2 (stereo not drawn) | > 281 | –
28 | O=c1c2cc3c(=O)n(CCc4ccccc4CO)c(=O)c3cc2c(=O)n1CCc1ccccc1CO | > 100 | –
29 | CCc1cc(=O)n(/C(C)=C/c2ccccc2)n1C | > 100 | –
30 | C/C(=N\Nc1nc2ccccc2s1)c1cccnn1 | > 100 | –
31 | FC(F)=C(c1ccc(-c2ccc(Cl)cc2)cc1)C(F)(F)F | 36.7 | –
32 | COC(=O)[C@H]1C=C[C@H](OC2OC(COC(C)=O)C(OC(C)=O)C(OC(C)=O)C2OC(C)=O)n2c(=O)n(-c3ccccc3)c(=O)n21 (stereo partly drawn) | 25.1 | –
33 | N/C(CSCCSC/C(N)=N/O)=N\O | > 100 | –

Tested on: SK-MEL-28 melanoma
Test: inhibition of tumour cell growth, NCI panel, 48 h

Row | Structure (SMILES) | TGI [µM] | GI50 [µM]
34 | CCOP(=O)(OCC)c1cc(-c2ccccc2)ccc1N | > 100 | –
35 | CC1(C)OC(CCO)CN1C(=O)OCc1ccccc1 (stereo not drawn) | > 100 | –
36 | COc1cc2c(cc1OCCCOc1cc3c(cc1OC)C(=O)N1CCC[C@H]1CN3)N=C[C@@H]1CCCN1C2=O | 0.749 | –
37 | CCOC(=O)C1=C(C)NC(=O)N([N+](=O)[O-])C1c1ccccc1C(F)(F)F (stereo not drawn) | > 100 | –
38 | CCOC(=O)Cc1nn2c(=O)cc(C)nc2s1 | > 100 | –
39 | COP(=O)(CC(=O)C1OC(OCc2ccccc2)C(OCc2ccccc2)C(OCc2ccccc2)C1OCc1ccccc1)OC (stereo not drawn) | > 100 | –
40 | CN1c2ccccc2C(=O)NC12CCN(CC1COc3ccccc3O1)CC2 (stereo not drawn) | > 100 | –
41 | CCOC1NC(=O)c2ccccc21 (stereo not drawn) | > 100 | –
42 | Cc1cn(C2CC(OC(c3ccccc3)(c3ccccc3)c3ccccc3)C(COC(c3ccccc3)(c3ccccc3)c3ccccc3)O2)c(=O)[nH]c1=O (stereo not drawn) | > 100 | –
43 | CCOC(=O)C(NC(=O)c1ccc(N=NN(C)C)cc1)C(C)C (stereo not drawn) | > 100 | –
44 | COc1cc(CCCOC2OC(COC3OCC(O)C(O)C3O)C(O)C(O)C2O)cc2cc(-c3ccc4c(c3)OCO4)oc12 (stereo not drawn) | > 175 | –
45 | O=CN(O)CC(=O)O | > 100 | –
46 | C(=N/Nc1ccc(-c2nc3ccccc3[nH]2)cc1)/c1c(-c2ccccc2)[nH]c2ccccc12 | > 100 | –
47 | Cc1ccc(-n2cc(-c3ccc(Cl)cc3)c3c2N=CN2NC(c4ccco4)=NC32)cc1 (stereo not drawn) | > 100 | –
48 | c1ccc([P+](Cc2csnn2)(c2ccccc2)c2ccccc2)cc1 | > 100 | –
49 | COc1cc2nc(-c3c(F)cccc3F)n(Cc3c(F)cccc3F)c2cc1Cc1c(F)cccc1F | 1.4 | –
50 | NS(=O)(=O)c1nnc(NSc2ccc([N+](=O)[O-])cc2)s1 | > 100 | –
51 | Nc1nc(Nc2ccc(OCc3cccc(F)c3)cc2)c2c(n1)[nH]c1ccc(O)cc12 | 5.59 | 2.26
